Experimental data from patent US20080139578A1, “Substituted piperizines for the treatment of pain” (priority 2006, published 2008).

Columns and labels:
Assay type in all cases: in vivo
Male Sprague Dawley rats = experiment: Rodent CFA model of inflammatory pain (mechanical hyperalgesia, Ugo Basile paw pressure); conditions: rat CFA model
[1] = system: Male Sprague-Dawley (Charles River) rats; experiment: Capsaicin-induced allodynia model (von Frey filaments); conditions: rat
Procedure: Male Sprague-Dawley (Charles River) rats were habituated to the von Frey stands for 4 hr the day prior to the testing day. Tactile allodynia was assessed using calibrated von Frey filaments (up-down method) before and 30, 60 and 120 min post capsaicin injection. Capsaicin (30 μg in 10 μl) was diluted in Ethanol:Tween80:Saline (20:7:73) and administered into the rat left paw. The test compound is administered P.O. at 3, 10 or 30 mg/kg (4 ml/kg) 30 min prior to capsaicin administration. Data are expressed as % inhibition=(post-treatment−post-vehicle)/(pre-capsaicin threshold−post-vehicle)×100. Statistic analysis: 2-way ANOVA (time and dose) and Bonferroni post-hoc analysis comparing each dose to vehicle.

[2] = system: rats (Sprague-Dawley, Harlan); experiment: Spared Nerve Ligation (SNL)-induced allodynia model (von Frey filaments); conditions: rat SNL model
Procedure: For the neuropathic pain model, rats (Sprague-Dawley, Harlan) were anesthetized with isoflurane and were placed on a heating pad. Using aseptic techniques, the L5 spinal nerve was exposed and ligated. Muscle and skin were closed with 4-0 Polydiaxone and wound clips, respectively. Animals were tested for allodynia 4 weeks post SNL surgery. Only rats that developed allodynia as defined by a significant decrease in their mechanical threshold using von Frey filaments, were used for evaluating the compound. Tactile allodynia was assessed with calibrated von Frey filaments (Stoelting Co), using an up-down paradigm before and at 2 hr and 44 hr post-compound administration. Data are expressed as % reversal=(post-treatment−post-vehicle)/(pre-SNL threshold−post-vehicle)×100.

Question: Which results are given for `O=C(CC(c1ccccc1)c1ccccc1)N1CCNCC1` [Example 1, 1-(3,3-diphenylpropanoyl)piperazine]?
Answer: reversal of hyperalgesia (Male Sprague Dawley rats; 3 mg/kg P.O., 3 hr post-dose): 17%; reversal of hyperalgesia (Male Sprague Dawley rats; 3 mg/kg P.O., one hour post-dose): 26%; reversal of hyperalgesia (Male Sprague Dawley rats; 10 mg/kg P.O., 3 hr post-dose): 39%; reversal of hyperalgesia (Male Sprague Dawley rats; 10 mg/kg P.O., one hour post-dose): 43%; reversal of hyperalgesia (Male Sprague Dawley rats; 30 mg/kg P.O., 3 hr post-dose): 44%; reversal of hyperalgesia (Male Sprague Dawley rats; 30 mg/kg P.O., one hour post-dose): 63%; maximal percent inhibition of allodynia ([1]; 3 mg/kg P.O. 30 min before capsaicin challenge): 33%; maximal percent inhibition of allodynia ([1]; 10 mg/kg P.O. 30 min before capsaicin challenge): 46%; maximal percent inhibition of allodynia ([1]; 30 mg/kg P.O. 30 min before capsaicin challenge): 89%; maximal percent reversal of allodynia ([2]; 3 mg/kg P.O.): 11%; maximal percent reversal of allodynia ([2]; 10 mg/kg P.O.): 47%; maximal percent reversal of allodynia ([2]; 30 mg/kg P.O.): 47%
